As usually defined, the IC50 is the concentration needed to halve the response being measured. A word on the melting point: it is the temperature, or range, at which the solid turns liquid.

Structures can show the parent of a compound that is named as a salt. Bounds are passed on as bounds.

Data on 31 compounds can be found in patent publication US7678787B2, “Pyrrolobenzodiazepine pyridine carboxamides and derivatives as follicle-stimulating hormone receptor antagonists” (Wyeth, priority 2005, dated 2010).

One series deals with T1, human FSH receptor (Homo sapiens, UniProt P23945).
T1 construct: host or cells: CHO-K1 (CHO FSH-R 6CRE-Luc, 1D7 cells)
T1 sequence (P23945 18-695): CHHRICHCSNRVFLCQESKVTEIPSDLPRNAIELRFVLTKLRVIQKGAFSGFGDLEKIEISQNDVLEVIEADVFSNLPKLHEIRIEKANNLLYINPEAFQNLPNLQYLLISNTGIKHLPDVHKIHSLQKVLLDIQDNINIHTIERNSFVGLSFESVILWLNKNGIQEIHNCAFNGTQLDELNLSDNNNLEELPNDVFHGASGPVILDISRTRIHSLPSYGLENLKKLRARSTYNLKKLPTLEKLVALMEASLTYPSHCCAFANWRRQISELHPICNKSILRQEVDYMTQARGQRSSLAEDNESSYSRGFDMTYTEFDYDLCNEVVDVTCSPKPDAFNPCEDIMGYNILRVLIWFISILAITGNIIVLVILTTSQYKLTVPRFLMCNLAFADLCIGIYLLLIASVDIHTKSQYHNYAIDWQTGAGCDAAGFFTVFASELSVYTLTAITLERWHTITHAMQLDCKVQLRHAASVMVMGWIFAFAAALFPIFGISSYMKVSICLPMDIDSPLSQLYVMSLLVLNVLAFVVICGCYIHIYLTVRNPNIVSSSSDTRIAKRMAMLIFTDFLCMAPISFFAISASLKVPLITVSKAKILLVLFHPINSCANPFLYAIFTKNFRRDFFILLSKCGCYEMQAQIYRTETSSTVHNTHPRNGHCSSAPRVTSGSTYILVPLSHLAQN
Kind of series: FSH receptor-dependent CRE-luciferase reporter gene assay (CHO FSH-R 6CRE-Luc cells). To be noted: dose-response format in presence of EC50 of purified human FSH; * n=3, ** n=2 averages. The series is classed as cell-based. The source says: FOLLICLE-STIMULATING HORMONE RECEPTOR-DEPENDENT CRE-LUCIFERASE REPORTER GENE ASSAY FOR THE IDENTIFICATION OF FOLLICLE-STIMULATING HORMONE (FSH) ANTAGONISTS
A Chinese hamster ovarian cell line that stably produces the human FSH receptor and a luciferase reporter gene regulated by cAMP response elements was used to identify and determine the relative potencies of human FSH receptor antagonists. See for example, Kelton, C. A., et al. Mol. Cell. Endocrinol. 89:141-151 (1992), Tilly, J. L., et al. Endocrinology 131:799-806(1992), and George, S. E., et al. J. Biomol. Screening 2:235-240 (1997).
Compound Vehicle: Stock compounds were solubilized in an appropriate vehicle, e.g., phosphate buffered saline (PBS) or dimethyl sulfoxide (DMSO), at 30 mM. The compounds subsequently were diluted in DMSO to working dilutions of 1 and 20 or 30 mM for 2-dose testing format and 1 μM-10 mM for dose-response format. The DMSO dilutions were diluted 500-fold in sterile growth medium [D-MEM/F-12 (GIBCO/BRL; Grand Island, N.Y.) containing 15 mM HEPES, 2 mM l-glutamine, pyridoxine hydrochloride, phenol red and 5% FETALCLONE® II (HyClone Laboratories, Inc; Logan, Utah), 0.2% DMSO, 100 units penicillin G/ml, and 100 μg streptomycin sulfate/ml (GIBCO/BRL)]. The concentration of the vehicle in each of the compound dilutions was the same.
Positive Controls: Purified human FSH (>98%) was purchased from Cortex Biochem, Inc. (San Leandro, Calif.) and 3-[(2S*,5R*)-5-{[2-(1H-Indol-3-yl)-ethylcarbamoyl]-methyl}-4-oxo-2-(5-phenylethynyl-thiophen-2-yl)-thiazolidin-3-yl]-benzamide (an FSH-R thiazolidinone antagonist) was prepared by processes described by R. A. Scheuerman et al. in U.S. Pat. No. 6,426,357 (Affymax).
The CHO FSH-R 6CRE-Luc cells (1D7 cells) were obtained from Affymax (Palo Alto, Calif.). These Chinese hamster ovary cells (CHO-K1) were engineered genetically to stably express the recombinant human FSH receptor gene and a luciferase reporter gene under the regulation of 6 copies of a cAMP response element. The cells were plated one day prior to treatment into 96-well white opaque plates at a density of 50,000 cells/100 μl/well in growth medium. On the day of treatment, the growth medium was removed from the wells by aspiration and 50 μl of fresh growth medium was added to each well. The cells were incubated at 37° C. in a humidified incubator with 5% CO2/95% air.
The treated cells were incubated for 4 hours at 37° C. in a humidified incubator with 5% CO2/95% air. At the end of the incubation period, luciferase activity was measured by chemiluminescence using a commercially available kit (LucScreen, Tropix, Inc., Bedford, Mass.) according to the manufacturer's specifications, except that Buffer 1 and Buffer 2 were mixed together in equal proportion prior to the addition of 100 μl of the combined reagents to each well. Chemiluminescence was detected using a luminometer (EG & G Berthold Microlumat LB 96 P, Wallac, Gaithersburg, Md.) with chemiluminescence measured for 1 sec/well. Background luminescence was measured for each well prior to the addition of the LucScreen reagent.
In the 96-well 2-dose format, each compound was tested in duplicate at each dose. […] One plate was used to test a maximum of 22 compounds.
The EC50 of purified human FSH alone was tested in triplicate with each test compound. The doses chosen to test each compound were extrapolated from the initial 2-dose screening process. Along with the test compounds, purified human FSH also was tested in a dose response (0.03, 0.1, 0.3, 1, 3, 10, and 30 ng/ml) for a positive control and quality control. One plate was used for 3 test compounds and the FSH positive control.
Luciferase activity is expressed as relative light units/sec/well. Luciferase activity in antagonist was compared to the appropriate negative and positive controls. For 2-dose testing, results are reported as luciferase activity and are expressed as percent inhibition of the response obtained from the EC50 of FSH.
(In general: In a reporter assay the amount or activity of a reporter protein is the signal.)
As for `COc1ccccc1-c1ccc(C(=O)N2Cc3ccc(C(=O)NCC(c4cccnc4)N4CCCC4)n3Cc3ccccc32)cc1` (stereo not drawn) [Example 9, 10-[(2′-METHOXY-1,1′-BIPHENYL-4-YL)CARBONYL]-N-(2-PYRIDIN-3-YL-2-PYRROLIDIN-1-YLETHYL)-10,11-DIHYDRO-5H-PYRROLO[2,1-C][1,4]BENZODIAZEPINE-3-CARBOXAMIDE], the 50% inhibitory concentration (IC50) came out at 17 µM. Consider `Cc1cccc(C)c1-c1ccc(C(=O)N2Cc3ccc(C(=O)NCc4cccnc4)n3Cc3ccccc32)cc1` [Example 12], for which the IC50 was 16.4 µM. The same measure, in the same setting: then `NS(=O)(=O)c1ccccc1-c1ccc(C(=O)N2Cc3ccc(C(=O)NCc4cccnc4)n3Cc3ccccc32)cc1` [Example 16], with 0.994 µM. On to `Cc1ccc(-c2ccc(C(=O)N3Cc4ccc(C(=O)NCc5cccnc5)n4Cc4ccccc43)cc2C)cc1` [Example 22], for which the concentration for half-maximal inhibition (IC50) worked out at 15 µM. Same read-out and setting: next, `CC(=O)c1ccc(-c2ccc(C(=O)N3Cc4ccc(C(=O)NCc5cccnc5)n4Cc4ccccc43)cc2C)cc1` [Example 26]: more than 30 µM; `Cc1ccccc1-c1cccc(C(=O)N2Cc3ccc(C(=O)NCc4cccnc4)n3Cc3ccccc32)c1` [Example 27]: 22.7 µM; `O=C(O)Cc1ccccc1-c1ccc(C(=O)N2Cc3ccc(C(=O)NCc4cccnc4)n3Cc3ccccc32)cc1` [Example 35, (4′-{[3-{[(PYRIDIN-3-YLMETHYL)AMINO]CARBONYL}-5H-PYRROLO[2,1-C][1,4]BENZODIAZEPIN-10(11H)-YL]CARBONYL}-1,1′-BIPHENYL-2-YL)ACETIC ACID]: 31 µM.

`CCN(CC)C(=O)Cc1ccccc1-c1ccc(C(=O)N2Cc3ccc(C(=O)NCc4cccnc4)n3Cc3ccccc32)cc1` [Example 67]: the IC50 is 29.1 µM.

In the case of `Cc1ccc(C(=O)N2Cc3ccc(C(=O)NCc4cccnc4)n3Cc3ccccc32)cc1` [Example 77], the 50% inhibitory concentration (IC50) was 18.8 µM.

As for `O=C(NCc1cccnc1)c1ccc2n1Cc1ccccc1N(C(=O)c1ccc(C(F)(F)F)cc1)C2` [Example 79], the half-maximal inhibitory concentration (IC50) was 17.8 µM. Still for that read-out and setting: then `Cc1cccc(C(=O)N2Cc3ccc(C(=O)NCc4cccnc4)n3Cc3ccccc32)c1` [Example 83], with 16.6 µM; and `O=C(NCc1cccnc1)c1ccc2n1Cc1ccccc1N(C(=O)c1cccc(C(F)(F)F)c1)C2` [Example 92], with 9.9 µM. Same read-out and setting: then `O=C(NCc1cccnc1)c1ccc2n1Cc1ccccc1N(C(=O)c1ccc(F)c(F)c1)C2` [Example 100], with 31.5 µM; and `O=C(NCc1cccnc1)c1ccc2n1Cc1ccccc1N(C(=O)c1ccc(Oc3ccccc3)cc1)C2` [Example 101], with 12 µM; and `NS(=O)(=O)c1cc(C(=O)N2Cc3ccc(C(=O)NCc4cccnc4)n3Cc3ccccc32)ccc1N1CCOCC1` [Example 114, 10-[3-(AMINOSULFONYL)-4-MORPHOLIN-4-YLBENZOYL]-N-(PYRIDIN-3-YLMETHYL)-10,11-DIHYDRO-5H-PYRROLO[2,1-C][1,4]BENZODIAZEPINE-3-CARBOXAMIDE HEMIHYDRATE], with more than 30 µM.

Turning to `O=C(NCc1cccnc1)c1ccc2n1Cc1ccccc1N(C(=O)c1ccccn1)C2` [Example 116], the IC50 was more than 30 µM. `O=C(NCc1cccnc1)c1ccc2n1Cc1ccccc1N(C(=O)c1cc(Cl)sc1Cl)C2` [Example 118]: the IC50 was found to be 27.7 µM.

For `COc1ccccc1CNc1ccc(C(=O)N2Cc3ccc(C(=O)NCc4cccnc4)n3Cc3ccccc32)cn1` [Example 120], the IC50 is 49.6 µM. On the same count and under the same terms, then `O=C(NCc1cccnc1)c1ccc2n1Cc1ccccc1N(C(=O)c1ccc(NCCc3ccccc3)nc1)C2` [Example 126], with 18.7 µM; and `O=C(NCc1cccnc1)c1ccc2n1Cc1ccccc1N(C(=O)c1ccc(NCc3cccnc3)nc1)C2` [Example 131], with 15.8 µM; and `CCCCNc1ccc(C(=O)N2Cc3ccc(C(=O)NCc4cccnc4)n3Cc3ccccc32)cn1` [Example 133], with 14.5 µM. As to `O=C(NCc1cccnc1)c1ccc2n1Cc1ccccc1N(C(=O)c1ccc3ccccc3c1)C2` [Example 146], the half-inhibitory concentration (IC50) was determined as 11.3 µM.

Tested on in a further series: not given
Test: not given
Conditions: not given
`Cc1ncc(CNC(=O)c2ccc3n2Cc2ccccc2N(C(=O)CSc2ccc(Br)cc2)C3)c(CO)c1O`: the melting point fell in the range of 199 to 200 °C.

`CN(C)C(=O)c1ccccc1-c1ccc(C(=O)N2Cc3ccc(C(=O)NCc4cccnc4)n3Cc3ccccc32)cc1` gave a melting point of 206 to 207 °C. The same measure, in the same setting: next, `COc1cc(C(=O)N2Cc3ccc(C(=O)NCc4c(CO)cnc(C)c4O)n3Cc3ccccc32)ccc1-c1ccccc1C` (as salt: hydrochloride) (hydrate or solvate): 179 °C; `O=C(NCc1cccnc1)c1ccc2n1Cc1ccccc1N(C(=O)CSc1ccc(Br)cc1)C2` (as salt: hydrochloride) (hydrate or solvate) [Example 141]: 136 to 137 °C. On the same count and under the same terms, then `CSc1ccccc1-c1ccc(C(=O)N2Cc3ccc(C(=O)NCc4cccnc4)n3Cc3ccccc32)cc1` (hydrate or solvate) [Example 14, 10-{[2′-(METHYLTHIO)-1,1′-BIPHENYL-4-YL]CARBONYL}-N-(PYRIDIN-3-YLMETHYL)-10,11-DIHYDRO-5H-PYRROLO[2,1-C][1,4]BENZODIAZEPINE-3-CARBOXAMIDE 0.67 HYDRATE], with 172 to 175 °C; and `NS(=O)(=O)c1cc(C(=O)N2Cc3ccc(C(=O)NCc4cccnc4)n3Cc3ccccc32)ccc1N1CCOCC1` (hydrate or solvate) [Example 114, 10-[3-(AMINOSULFONYL)-4-MORPHOLIN-4-YLBENZOYL]-N-(PYRIDIN-3-YLMETHYL)-10,11-DIHYDRO-5H-PYRROLO[2,1-C][1,4]BENZODIAZEPINE-3-CARBOXAMIDE HEMIHYDRATE], with 159 to 161 °C. On the same count and under the same terms, next, `Cc1cccc(C)c1-c1ccc(C(=O)N2Cc3ccc(C(=O)NCc4cccnc4)n3Cc3ccccc32)cc1` [Example 12]: 216 to 218 °C (dec.); `NS(=O)(=O)c1ccccc1-c1ccc(C(=O)N2Cc3ccc(C(=O)NCc4cccnc4)n3Cc3ccccc32)cc1` [Example 16]: 153 to 156 °C. The compound `O=C(NCc1cccnc1)c1ccc2n1Cc1ccccc1N(C(=O)c1ccccc1)C2` [Example 76] yielded a melting point of 197 °C. As to `O=C(NCc1cccnc1)c1ccc2n1Cc1ccccc1N(C(=O)c1ccc3c(c1)OCO3)C2` [Example 96], the melting point was 169 to 171 °C. In turn, `O=C(NCc1cccnc1)c1ccc2n1Cc1ccccc1N(C(=O)c1ccc3c(c1)Cc1ccccc1-3)C2` [Example 147] came in with a melting point of 116 to 119 °C.
